Measurements as given in patent US9321718B2 (CHROMA THERAPEUTICS LTD., priority 2010, dated 2016).
pIC50: −log10 of the molar value.

Target: T1, human recombinant his-tagged HSP90α (Homo sapiens, UniProt P07900)
T1 construct: purchased Prospec Technogene #HSP90
Assay: HSP90 enzyme assay (HTRF, competition with biotinylated Geldanamycin)
Assay type: binding
Conditions: IC50 range; read-out: Enzyme Assay
From the text: An HTRF (homogeneous time resolved fluorescence) assay is used to measure the interaction of the compounds with HSP90. The assay measures binding of biotinylated Geldanamycin (bio-GM; Biomol, #EI-341, lot: A9199a) to human recombinant his-tagged HSP90α (HSP90; Prospec Technogene, #HSP90, lot: 260HSP9001). A signal is generated by fluorescence resonance energy transfer from an Europium-cryptate labeled anti-his antibody (anti-his-K; Cisbio International, #61HISKLA, lot: 33V) via the HSP90-GM-biotin complex to a fluorescence acceptor (allophycocyanin) linked to streptavidin (SA-XL; Cisbio International, #610SAXLB, lot: 089).
Unlabeled GM or compounds compete with the bio-GM for binding to HSP90 resulting in reduced fluorescence energy transfer/assay signal.
A preformed (1 hour incubation) complex of HSP90 with the anti-his-K is added to the compound solution in a 384 well microplate (Corning, #3710) and incubated for 15 minutes. A preformed (1 hour incubation) complex of bio-GM with the SA-XL is added to the wells and incubated for 20 hours. All incubations are performed at room temperature. The final assay volume is 50 μl/well. The final concentrations in the assay are: 50 mM Hepes pH 7.3, 50 mM NaCl, 100 mM KF, 1 mM EDTA, 1 mM DTT, 0.1% Triton-X-100, […] HSP90, 40 nM SA-XL, 40 nM bio-GM. Test compounds are dissolved in DMSO, prediluted in assay buffer and tested at a final concentration between 5000 nM and 0.3 nM. The resulting DMSO concentration is 0.5% and included in all controls. High controls are without test compounds, low controls without test compounds, without HSP90 and without bio-GM. As a reference inhibitor unlabeled GM is used in the same concentrations as the test compounds.
Inhibition is calculated compared to the assay controls using an Excel spreadsheet (Microsoft). IC50 values are calculated by non-linear least squares fitting to the standard dose-response model using GraphPad Prism (GraphPad Software Inc).

Structure (SMILES) | pIC50
CC(C)c1cc(C(=O)N2CCC(CCN[C@H](C(=O)O)C(C)C)CC2)c(O)cc1O [Example 121, N-[2-(1-{[2,4-dihydroxy-5-(propan-2-yl)phenyl]carbonyl}piperidin-4-yl)ethyl]-L-valine] | > 7.00
CC(C)c1cc(C(=O)N2CCC(N[C@@H](CC3CCCCC3)C(=O)O)CC2)c(O)cc1O [Example 110, 3-cyclohexyl-N-(1-{[2,4-dihydroxy-5-(propan-2-yl)phenyl]carbonyl}piperidin-4-yl)-L-alanine] | > 7.00
CC(C)c1cc(C(=O)N2CCC(CCN[C@@H](COC(C)(C)C)C(=O)OC(C)(C)C)CC2)c(O)cc1O [Example 53, tert-butyl O-tert-butyl-N-[2-(1-{[2,4-dihydroxy-5-(propan-2-yl)phenyl]carbonyl}piperidin-4-yl)ethyl]-L-serinate] | > 7.00
CC(C)c1cc(C(=O)N2Cc3ccc(CCCNC4(C(=O)O)CCCC4)cc3C2)c(O)cc1O [Example 90, 1-{[3-(2-{[2,4-dihydroxy-5-(propan-2-yl)phenyl]carbonyl}-2,3-dihydro-1H-isoindol-5-yl)propyl]amino}cyclopentanecarboxylic acid] | > 7.00
CC(C)c1cc(C(=O)N(C)Cc2cccc(CNC3(C(=O)O)CCCC3)c2)c(O)cc1O [Example 88, 1-[(3-{[{[2,4-dihydroxy-5-(propan-2-yl)phenyl]carbonyl}(methyl)amino]methyl}benzyl)amino]cyclopentanecarboxylic acid] | > 7.00
CC(C)c1cc(C(=O)N2CCC(CCN[C@@H](C)C(=O)OC(C)(C)C)CC2)c(O)cc1O [Example 43, tert-butyl N-[2-(1-{[2,4-dihydroxy-5-(propan-2-yl)phenyl]carbonyl}piperidin-4-yl)ethyl]-L-alaninate] | > 7.00
CC(C)c1cc(C(=O)N2CCC(CN[C@@H](COC(C)(C)C)C(=O)O)CC2)c(O)cc1O [Example 119] | > 7.00

Next, values leading:

pIC50 | Structure (SMILES)
6.00 to 7.00 | CC(C)c1cc(C(=O)N2CCC(N[C@H](C(=O)OC(C)(C)C)C3CCCCC3)CC2)c(O)cc1O [Example 15, tert-butyl (2S)-cyclohexyl[(1-{[2,4-dihydroxy-5-(propan-2-yl)phenyl]carbonyl}piperidin-4-yl)amino]ethanoate]
> 7.00 | CC(C)C[C@H](NC1CCN(C(=O)c2cc(C(C)C)c(O)cc2O)CC1)C(=O)O [Example 96, N-(1-{[2,4-dihydroxy-5-(propan-2-yl)phenyl]carbonyl}piperidin-4-yl)-L-leucine]
> 7.00 | CC(C)C[C@H](NCCC1CCN(C(=O)c2cc(C(C)C)c(O)cc2O)CC1)C(=O)O [Example 104, N-[2-(1-{[2,4-dihydroxy-5-(propan-2-yl)phenyl]carbonyl}piperidin-4-yl)ethyl]-L-leucine]
6.00 to 7.00 | CC(C)c1cc(C(=O)N2CCC(CN[C@H](C(=O)OC(C)(C)C)C3CCCCC3)CC2)c(O)cc1O [Example 31, tert-butyl (2S)-cyclohexyl{[(1-{[2,4-dihydroxy-5-(propan-2-yl)phenyl]carbonyl}piperidin-4-yl)methyl]amino}ethanoate]
> 7.00 | CC(C)c1cc(C(=O)N2Cc3ccc(CNC(C)(C)C(=O)O)cc3C2)c(O)cc1O [Example 79, N-[(2-{[2,4-dihydroxy-5-(propan-2-yl)phenyl]carbonyl}-2,3-dihydro-1H-isoindol-5-yl)methyl]-2-methylalanine]
> 7.00 | CC(C)c1cc(C(=O)N2CCC(CCN[C@@H](Cc3ccccc3)C(=O)OC(C)(C)C)CC2)c(O)cc1O [Example 41, tert-butyl N-[2-(1-{[2,4-dihydroxy-5-(propan-2-yl)phenyl]carbonyl}piperidin-4-yl)ethyl]-L-phenylalaninate]
> 7.00 | CC(C)c1cc(C(=O)N2CCC(NC(C)(C)C(=O)O)CC2)c(O)cc1O [Example 97, N-(1-{[2,4-dihydroxy-5-(propan-2-yl)phenyl]carbonyl}piperidin-4-yl)-2-methylalanine]
